What was measured:
Assay type in all cases: cell-based; call rule not given here
[1] = biological target: T1, ATP-dependent translocase ABCB1 (Homo sapiens, UniProt P08183); assay: Inhibition of ABCB1 in human SW620/AD300 cells assessed as potentiation of paclitaxel-induced cytotoxicity by measuring fold reduction in paclitaxel IC50 at 2 uM preincubated for 4 hrs followed by paclitaxel addition measured after 72 hrs by MTT assay
[2] = biological target: T1, ATP-dependent translocase ABCB1; assay: Inhibition of ABCB1 in human SW620/AD300 cells assessed as reduction in paclitaxel efflux at 2 uM treated followed by 2 hrs of paclitaxel treatment in paclitaxel free medium for 30 mins by flow cytometry
[3] = biological target: T1, ATP-dependent translocase ABCB1; assay: Binding affinity at ABCB1 in human SW620/AD300 cells assessed as thermal stabilization at 2 uM preincubated for 4 hrs followed by incubation 40 to 61 degC for 3 mins by CETSA; settings: 0.05 h
[4] = biological target: T1, ATP-dependent translocase ABCB1; assay: Inhibition of ABCB1 (unknown origin) expressed in HEK293T cells assessed as potentiation of paclitaxel-induced cytotoxicity by measuring fold reduction in paclitaxel IC50 at 2 uM preincubated for 4 hrs followed by paclitaxel addition measured after 72 hrs by MTT assay
[5] = biological target: T1, ATP-dependent translocase ABCB1; assay: Inhibition of ABCB1 in human SW620/AD300 cells assessed as increase in Rh123 accumulation at 2 uM preincubated or 4 hrs followed by Rh123 addition measured after 30 mins by flow cytometry; settings: 0.5 h
[6] = biological target: T1, ATP-dependent translocase ABCB1; assay: Inhibition of ABCB1 (unknown origin) expressed in HEK293T cells assessed as potentiation of colchicine-induced cytotoxicity by measuring fold reduction in colchicine IC50 at 2 uM preincubated for 4 hrs followed by […] measured after 72 hrs by MTT assay
[7] = biological target: T1, ATP-dependent translocase ABCB1; assay: Inhibition of ABCB1 in human SW620/AD300 cells assessed as potentiation of colchicine-induced cytotoxicity by measuring fold reduction in colchicine IC50 at 2 uM preincubated for 4 hrs followed by […] measured after 72 hrs by MTT assay
[8] = biological target: T1, ATP-dependent translocase ABCB1; assay: Inhibition of ABCB1 in human SW620/AD300 cells assessed as reduction in Rh123 efflux at 2 uM treated followed by Rh123 addition in Rh123 free medium for 30 to 120 mins by flow cytometry
[9] = biological target: T1, ATP-dependent translocase ABCB1; assay: Inhibition of ABCB1 in human SW620/AD300 cells assessed as potentiation of colchicine-induced cytotoxicity by measuring fold reduction in colchicine IC50 at 2 uM preincubated for 4 hrs followed by […] measured after 72 hrs by MTT assay relative to verapamil
[10] = biological target: T1, ATP-dependent translocase ABCB1; assay: Inhibition of ABCB1 in human SW620/AD300 cells assessed as potentiation of paclitaxel-induced cytotoxicity by measuring fold reduction in paclitaxel IC50 at 2 uM preincubated for 4 hrs followed by paclitaxel addition measured after 72 hrs by MTT assay relative to verapamil

T1 sequence (P08183 whole entry): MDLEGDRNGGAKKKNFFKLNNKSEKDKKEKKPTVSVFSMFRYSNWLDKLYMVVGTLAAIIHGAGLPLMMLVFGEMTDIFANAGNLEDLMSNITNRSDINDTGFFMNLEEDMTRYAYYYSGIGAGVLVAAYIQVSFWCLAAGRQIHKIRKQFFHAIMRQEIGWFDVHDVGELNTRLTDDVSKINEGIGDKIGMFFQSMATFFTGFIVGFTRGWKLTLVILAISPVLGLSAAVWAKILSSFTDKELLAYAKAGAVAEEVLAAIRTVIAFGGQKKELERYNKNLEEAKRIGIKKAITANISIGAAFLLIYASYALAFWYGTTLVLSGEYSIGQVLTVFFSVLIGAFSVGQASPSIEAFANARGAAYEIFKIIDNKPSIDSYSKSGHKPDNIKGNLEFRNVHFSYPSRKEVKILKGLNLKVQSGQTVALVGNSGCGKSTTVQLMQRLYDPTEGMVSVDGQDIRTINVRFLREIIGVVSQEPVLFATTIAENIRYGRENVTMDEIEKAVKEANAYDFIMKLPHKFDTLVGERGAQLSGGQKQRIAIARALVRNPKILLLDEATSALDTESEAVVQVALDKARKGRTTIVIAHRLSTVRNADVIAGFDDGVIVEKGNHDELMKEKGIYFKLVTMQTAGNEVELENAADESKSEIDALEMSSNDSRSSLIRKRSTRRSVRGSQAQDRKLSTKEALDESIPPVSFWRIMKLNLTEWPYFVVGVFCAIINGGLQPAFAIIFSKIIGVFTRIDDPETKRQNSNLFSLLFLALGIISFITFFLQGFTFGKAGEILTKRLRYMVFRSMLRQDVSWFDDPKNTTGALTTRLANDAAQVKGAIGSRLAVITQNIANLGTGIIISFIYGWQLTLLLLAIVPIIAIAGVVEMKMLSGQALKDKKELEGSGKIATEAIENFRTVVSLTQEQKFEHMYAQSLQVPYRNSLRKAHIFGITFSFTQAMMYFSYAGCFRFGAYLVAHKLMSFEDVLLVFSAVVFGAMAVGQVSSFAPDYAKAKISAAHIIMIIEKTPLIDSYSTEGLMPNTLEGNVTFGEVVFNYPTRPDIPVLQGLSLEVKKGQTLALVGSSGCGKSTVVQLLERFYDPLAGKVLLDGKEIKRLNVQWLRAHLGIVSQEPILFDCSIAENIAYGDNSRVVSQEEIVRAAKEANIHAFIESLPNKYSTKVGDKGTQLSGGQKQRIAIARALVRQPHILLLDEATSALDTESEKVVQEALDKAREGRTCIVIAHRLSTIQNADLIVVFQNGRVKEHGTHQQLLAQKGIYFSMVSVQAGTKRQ

SMILES | fold change (FC) [1] | other results
C#CCSc1nc(Nc2ccc(Cl)cc2)c(C#N)c(-c2ccccc2)n1 | 1.64 | 
N#Cc1c(Nc2ccccc2)nc(SCc2cn(Cc3ccccc3Cl)nn2)nc1-c1ccccc1 | 7.86 | 
C#CCSc1nc(Nc2ccc(OC)cc2)c(C#N)c(-c2ccccc2)n1 | 1.92 | 
Cc1ccc(Nc2nc(SCc3cn(Cc4ccc(Cl)cc4)nn3)nc(-c3ccccc3)c2C#N)cc1 | 8.7 | 
Cc1ccc(Nc2nc(SCc3cn(Cc4ccccc4Cl)nn3)nc(-c3ccc(Cl)cc3)c2C#N)cc1 | 5.31 | 
Cc1ccc(Cn2cc(CSc3nc(Nc4ccccc4Cl)c(C#N)c(-c4ccccc4)n3)nn2)cc1 | 1.09 | 
Cc1ccc(Nc2nc(SCc3cn(Cc4ccccc4Cl)nn3)nc(-c3ccccc3)c2C#N)cc1 | 3.58 | 
COc1ccccc1Nc1nc(SCc2cn(Cc3ccccc3Cl)nn2)nc(-c2ccccc2)c1C#N | 2.29 | 
Cc1ccc(Nc2nc(SCc3cn(Cc4ccccc4Cl)nn3)nc(-c3ccc(C(C)C)cc3)c2C#N)cc1 | 51.12 | 
Cc1ccc(Nc2nc(SCc3cn(Cc4ccccc4Cl)nn3)nc(-c3ccc(Br)cc3)c2C#N)cc1 | 3.61 | 
N#Cc1c(Nc2ccccc2Cl)nc(SCc2cn(Cc3ccccc3Cl)nn2)nc1-c1ccccc1 | 24.06 | 
Cc1ccc(Nc2nc(SCc3cn(Cc4ccccc4Cl)nn3)nc(-c3ccc(C)cc3)c2C#N)cc1 | 17.04 | 
Cc1cccc(Nc2nc(SCc3cn(Cc4ccccc4Cl)nn3)nc(-c3ccccc3)c2C#N)c1 | 8.7 | 
Cc1ccccc1Nc1nc(SCc2cn(Cc3ccccc3Cl)nn2)nc(-c2ccccc2)c1C#N | 5.6 | 
N#Cc1c(Nc2ccc(F)cc2)nc(SCc2cn(Cc3ccccc3Cl)nn2)nc1-c1ccccc1 | 1.01 | 
N#Cc1c(Nc2ccccc2F)nc(SCc2cn(Cc3ccccc3Cl)nn2)nc1-c1ccccc1 | 8.7 | 

SMILES | fold change (FC) [1] | other results
N#Cc1c(Nc2cccc(C(F)(F)F)c2)nc(SCc2cn(Cc3ccccc3Cl)nn2)nc1-c1ccccc1 | 5.84 | 
Cc1ccc(Cn2cc(CSc3nc(Nc4ccccc4F)c(C#N)c(-c4ccccc4)n3)nn2)cc1 | 1 | 
Cc1ccc(Cn2cc(CSc3nc(Nc4ccc(C)cc4)c(C#N)c(-c4ccccc4)n3)nn2)cc1 | 4.35 | 
C#CCSc1nc(Nc2ccccc2Cl)c(C#N)c(-c2ccccc2)n1 | 1.32 | 
N#Cc1c(Nc2cccc([N+](=O)[O-])c2)nc(SCc2cn(Cc3ccccc3Cl)nn2)nc1-c1ccccc1 | 5.68 | 
N#Cc1c(Nc2ccc(Cl)cc2)nc(SCc2cn(Cc3ccccc3Cl)nn2)nc1-c1ccccc1 | 2.02 | 
Cc1ccc(Nc2nc(SCc3cn(Cc4ccc(F)cc4)nn3)nc(-c3ccccc3)c2C#N)cc1 | 1.03 | 
COc1ccc(Nc2nc(SCc3cn(Cc4ccccc4Cl)nn3)nc(-c3ccccc3)c2C#N)cc1 | 6.7 | 
N#Cc1c(Nc2ccccc2F)nc(SCc2cn(Cc3ccc(Cl)cc3)nn2)nc1-c1ccccc1 | 1.35 | 
Cc1ccc(Cn2cc(CSc3nc(Nc4ccccc4C)c(C#N)c(-c4ccccc4)n3)nn2)cc1 | 4.44 | 
C#CCSc1nc(Nc2cccc(Cl)c2)c(C#N)c(-c2ccccc2)n1 | 1.36 | 
C#CCSc1nc(Nc2cccc(C(F)(F)F)c2)c(C#N)c(-c2ccccc2)n1 | 1.2 | 
Cc1ccccc1Nc1nc(SCc2cn(Cc3ccc(Cl)cc3)nn2)nc(-c2ccccc2)c1C#N | 136.33 | inhibition (INH) [2]: Active; Activity [3]: Active; fold change (FC) [4]: 4.53; inhibition (INH) [5]: Active; fold change (FC) [6]: 31.31; fold change (FC) [7]: 5.04; inhibition (INH) [8]: Active; fold change (FC) [9]: 2; fold change (FC) [10]: 7
N#Cc1c(Nc2cccc(Cl)c2)nc(SCc2cn(Cc3ccccc3Cl)nn2)nc1-c1ccccc1 | 21.52 | 
COc1cc(-c2nc(SCc3cn(Cc4ccccc4Cl)nn3)nc(Nc3ccc(C)cc3)c2C#N)cc(OC)c1OC | 34.08 | 

— ChEMBL document CHEMBL4130548, “Exploration of 1,2,3-triazole-pyrimidine hybrids as potent reversal agents against ABCB1-mediated multidrug resistance” (Eur J Med Chem, 2018)
